Assay results as given in US9376725B1, “Methods of screening for compounds for treating muscular dystrophy using human ALPHA7 integrin mRNA translation regulation” (PTC Therapeutics, Inc., priority 2007, dated 2016).

Assays:
UTRN mRNA = experiment: fLuc reporter gene assay, UTRN 5′-UTR and 3′-UTR stable cell line; type: cell-based, human; settings: 7.5 μM test concentration, 24 hours, vs 0.5% DMSO, luciferase luminescence, stable 293H or RD cells
Source text: (§1) As shown in the following examples, compounds that modulate the expression of proteins (e.g., mIGF1, ITGA7, or UTRN) have been identified or validated and have the potential to treat MD, or a form thereof. Stable muscle (RD) or kidney (293H) cell lines expressing the firefly luciferase (fLuc) reporter gene flanked by the 5′-UTR and 3′-UTR of mIGF1, ITGA7, or UTRN mRNA were constructed and used to identify or validate compounds able to specifically increase expression of a reporter gene via nucleic acid constructs comprising at least the 5′-UTR and 3′-UTR of mIGF1, ITGA7 or UTRN and to increase expression of endogenous mIGF1, ITGA7 or UTRN protein.
(§2) A high-level expression vector, pcDNA™3.1/Hygro (Invitrogen Corp., Carlsbad, Calif.) was used for preparing the constructs comprising the luciferase gene flanked by any of the 5′-UTR and 3′-UTR, the 5′-UTR or the 3′-UTR of mIGF1, ITGA7, and UTRN mRNA. In a pcDNA™3.1/Hygro vector, the UTRs and restriction sites normally associated with cloning and/or expressing a gene of interest or reporter gene were removed or replaced. For each construct containing 5′ UTR sequences, the 5′ UTR sequences with a start codon were cloned into the vector using the appropriate restriction sites.
(§3) Stable 293H and RD cell lines containing the firefly luciferase (fLuc) gene flanked by mIGF1, ITGA7, or UTRN 5′-UTR and 3′-UTR were cultured in DMEM medium supplemented with 10% FBS and 200 μg/mL hygromycin in Fisher T175 flasks. The cells were passaged every 4 days at 1:10 dilution. Cultures were kept in a 37° C. and 5% CO2 incubator. The cells were scaled-up three days before performing the assay. Two confluent T175 flasks were split into twenty T175 flasks (1:10 dilution). Cells were harvested from each confluent flask by removing all of the media and adding 4 mL of warmed trypsin to dislodge the cells. After the cells were dislodged, 16 mL of selective media was added for a final volume of 20 mL. The cells were expanded by adding 2 mL of the harvested cells into ten new T175 flasks plus 25 ml, of selective media. The twenty new flasks were placed into the 37° C., 5% CO2 incubator. On the day the assay was performed, the media was removed from the flasks and 3 mL of warmed trypsin was added to dislodge the cells. After the cells were dislodged, 10 mL of nonselective media was added to the flask. This was repeated for all twenty flasks and combined into one flask. 100 μL of the above cell culture plus 100 μL of Trypan Blue stain was counted on a hemocytometer. 38 μL of cells (approximately 263 cells/4) were plated in the presence of 2 μL of a compound to be tested (at final concentration of 7.5 μM with 0.5% DMSO).
(§4) The firefly luciferase substrate used was Luc Lite Plus Packard #6016969. Luciferase activity was immediately assayed using a ViewLux Imaging system (Perkin Elmer).
(§5) The screening assay was performed by preparing plates containing test compounds and controls, including wells that contained only vehicle or a high inhibitor concentration and wells that provided an 8-point dose response curve of puromycin, a non-specific standard control inhibitor. The cells were grown overnight in the presence of compounds or controls at 37° C. in 5% CO2. Compounds were screened once for percent inhibition at a 7.5 μM test concentration. After 24 hours, the amount of luminescence was determined using a ViewLux Imaging system (Perkin Elmer).
(§6) The results for compounds shown in the following tables indicate that the compounds of the present invention enhance post-transcriptional expression of a nucleic acid construct comprising a reporter gene operably linked to any of the 5′-UTR and 3′-UTR, the 5′-UTR or the 3′-UTR of the target mIGF1 mRNA (Table 1), ITGA7 mRNA (Table 2), or UTRN mRNA (Table 3). […]

ITGA7 mRNA = experiment: fLuc reporter gene assay, ITGA7 5′-UTR and 3′-UTR stable cell line; type: cell-based, human; settings: 7.5 μM test concentration, 24 hours, vs 0.5% DMSO, luciferase luminescence, stable 293H or RD cells
Source text: as §1, §2, §3, §4, §5, §6

mIGF1 mRNA = experiment: fLuc reporter gene assay, mIGF1 5′-UTR and 3′-UTR stable cell line; type: cell-based, human; settings: 7.5 μM test concentration, 24 hours, vs 0.5% DMSO, luciferase luminescence, stable 293H or RD cells
Source text: as §1, §2, §3, §4, §5, §6

[1] = CellTiter-Glo cytotoxicity assay, U937; type: cell-based; settings: human, U937 cells (monocyte cell line); U937, relatively sensitive cell line
Source text: To evaluate cytotoxicity of the compounds in the 293H and RD cell lines, the CellTiter-Glo assay (Promega) is utilized. CellTiter-Glo determines the number of viable cells in culture based on quantification of the ATP present, which signals the presence of metabolically active cells. A reduction in cellular ATP is indicative of a cytotoxic or cytostatic effect. Doxorubicin, a known cytotoxic compound, is used to address the sensitivity of the tested cell line. For relatively sensitive cell lines, such as U937 (a human monocyte cell line), the CC50 of doxorubicin ranges from 4 to 10 nM.

[2] = CellTiter-Glo cytotoxicity assay, Huh7; type: cell-based; settings: human, Huh7 cells (hepatoblastoma cell line); Huh7, intermediate level of sensitivity
dystrophin [3] = settings: human clinical trials; cited from earlier work
dystrophin [4] = settings: mouse model; results could not be replicated; cited from earlier work

For `Oc1cccc(-c2nc3ccc4ccccc4c3c3c2CCC3)c1` [Cpd 4, 3-(2,3-dihydro-1H-benzo[f]cyclopenta[c]quinolin-4-yl)phenol], the “UTRN, fold increase compared to negative control” value (shortened to “UTRN, fold increase”) (UTRN mRNA) was “** (two stars indicate a greater than one-fold and up to two-fold increase in target mRNA)”, the “ITGa7, fold increase compared to negative control” value (shortened to “ITGa7, fold increase”) (ITGA7 mRNA) was “*** (three stars indicate a greater than two-fold and up to three-fold increase in target mRNA)” and the “mIGF1, fold increase compared to negative control” value (“mIGF1, fold increase” below) (mIGF1 mRNA) was “*** (three stars indicate a greater than two-fold and up to three-fold increase in target mRNA)”.

In the case of `COc1cccc2c1C(=O)c1c(O)c3c(c(O)c1C2=O)C[C@@](O)(C(=O)CO)C[C@@H]3O[C@H]1C[C@H](N)[C@H](O)[C@H](C)O1` [doxorubicin, Doxorubicin], the CC50 [1] is reported as 4 to 10 nM and the CC50 [2] is reported as 70 to 300 nM.

With `CCCCOc1ccc(C(=O)NC(=S)Nc2cc(-c3nc4ccccc4s3)ccc2C)cc1` [Cpd 7, N-(5-(benzo[d]thiazol-2-yl)-2-methylphenylcarbamothioyl)-4-butoxybenzamide] the “UTRN, fold increase” value (UTRN mRNA) was “** (two stars indicate a greater than one-fold and up to two-fold increase in target mRNA)”, the “ITGa7, fold increase” value (ITGA7 mRNA) was “**** (four stars indicate a greater than three-fold and up to four-fold increase in target mRNA)” and the “mIGF1, fold increase” value (mIGF1 mRNA) was “*** (three stars indicate a greater than two-fold and up to three-fold increase in target mRNA)”.

For gentamicin, the “increase in expression of dystrophin” value (dystrophin [3]) is given as “no increase” and the “increase in dystrophin levels” value (dystrophin [4]) is given as 10-20%.

For `CN(C)c1ccc(-c2nc3cc([N+](=O)[O-])ccc3[nH]2)cc1` [Cpd 2, N,N-dimethyl-4-(5-nitro-1H-benzo[d]imidazol-2-yl)aniline], the “UTRN, fold increase” value (UTRN mRNA) was “*** (three stars indicate a greater than two-fold and up to three-fold increase in target mRNA)”, the “ITGa7, fold increase” value (ITGA7 mRNA) was “**** (four stars indicate a greater than three-fold and up to four-fold increase in target mRNA)” and the “mIGF1, fold increase” value (mIGF1 mRNA) was “** (two stars indicate a greater than one-fold and up to two-fold increase in target mRNA)”.

With `N#CC1=C(N)Oc2c(ccc3ccccc23)C1c1cccc(C(F)(F)F)c1` (stereo not shown) [Cpd 6, 2-amino-4-(3-(trifluoromethyl)phenyl)-4H-benzo[h]chromene-3-carbonitrile] the “UTRN, fold increase” value (UTRN mRNA) was “** (two stars indicate a greater than one-fold and up to two-fold increase in target mRNA)”, the “ITGa7, fold increase” value (ITGA7 mRNA) was “* (one star indicates less than one-fold increase in target mRNA)” and the “mIGF1, fold increase” value (mIGF1 mRNA) was “* (one star indicates less than one-fold increase in target mRNA)”.

With `Nc1ccc(Sc2cc(Cl)nc(N)n2)cc1` [Cpd 1, 4-(4-aminophenylthio)-6-chloropyrimidin-2-amine] the “UTRN, fold increase” value (UTRN mRNA) was “** (two stars indicate a greater than one-fold and up to two-fold increase in target mRNA)”, the “ITGa7, fold increase” value (ITGA7 mRNA) was “** (two stars indicate a greater than one-fold and up to two-fold increase in target mRNA)” and the “mIGF1, fold increase” value (mIGF1 mRNA) was “** (two stars indicate a greater than one-fold and up to two-fold increase in target mRNA)”.

In the case of `CCCc1cc(Cl)n2c(nc3ccccc32)c1C#N` [Cpd 3, 1-chloro-3-propyl-benzoimidazo[1,2-a]pyridine-4-carbonitrile], the “UTRN, fold increase” value (UTRN mRNA) is reported as “** (two stars indicate a greater than one-fold and up to two-fold increase in target mRNA)”, the “ITGa7, fold increase” value (ITGA7 mRNA) is reported as “* (one star indicates less than one-fold increase in target mRNA)” and the “mIGF1, fold increase” value (mIGF1 mRNA) is reported as “* (one star indicates less than one-fold increase in target mRNA)”.

For `CCOc1ccc(C(=O)NC(=S)Nc2ccc(-c3nc4ccccc4s3)cc2)cc1[N+](=O)[O-]` [Cpd 5, N-(4-(benzo[d]thiazol-2-yl)phenylcarbamothioyl)-4-ethoxy-3-nitrobenzamide], the “UTRN, fold increase” value (UTRN mRNA) was “*** (three stars indicate a greater than two-fold and up to three-fold increase in target mRNA)”, the “ITGa7, fold increase” value (ITGA7 mRNA) was “*** (three stars indicate a greater than two-fold and up to three-fold increase in target mRNA)” and the “mIGF1, fold increase” value (mIGF1 mRNA) was “** (two stars indicate a greater than one-fold and up to two-fold increase in target mRNA)”.
